Measured values reported in patent publication US11617777B2, “Cytotoxic and anti-mitotic compounds, and methods of using the same” (ZYMEWORKS BC INC., priority 2013, dated 2023).
Like-named read-outs stand apart in the source and are kept apart here.

Legend:
Experiment in all cases: Cytotoxicity of compounds, CellTiter-Glo
Jurkat cells = format: cell-based, Human; conditions: Homo sapiens, Jurkat
Summary of the method: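 HCC1954 plated at 2500 cells/100 uL and attached overnight; Jurkat plated at 2500 cells/100 uL on the day of dosing. Cells exposed to 8-step 1:3 compound titrations for three nights at 37° C./5% CO2, in triplicate. CellTiter-Glo luminescence converted to % cytotoxicity versus medium-only control; EC50 by three-parameter nonlinear regression.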

NCI-N87 = format: cell-based; conditions: Homo sapiens, Table 5, read-out: Cytotoxicity (EC50) NCI-N87
Source text: (§1) FIG. 1 summarizes the data for compounds A, B, C, D, and E when tested using the Human mammary carcinoma cell line HCC1954 or Human T-cell leukemia cell line Jurkat. FIGS. 2-6 show the cytotoxicity data plots for individual compounds A-E. Tables 2-6 summarize the results of additional cytotoxicity assays.
(§2) Cell lines used: Human T-cell leukemia cell line Jurkat (ATCC: TIB-152); HCC1954 (ATCC: CRL. 2338); Human Pancreatic cells lines: AsPC-1 (ATCC: CRL-1682), BxPC-3 (ATCC: CRL.1687), HPAF-II (ATCC: CRL.1997), MiaPaCa2 (ATCC: CRL.1420), PANC-1 (ATCC: CRL.1469), Capan-1 (ATCC: HTB-79), Capan-2 (ATCC: HTB-80) and the Human gastric carcinoma cell line NCI-N87 (ATCC: CRL. 5822); AML-193 (ATCC: CRL.9589), CCRF-CEM (ATCC: CCL-119), DU145 (ATCC: HTB-81), PC-3 (ATCC: CRL.1435), A-431 (ATCC: CRL.1555), HT-29 (ATCC: HTB-38), A-172 (ATCC: CRL.1620), NCI-H358 (ATCC: CRL.5807), A549 (ATCC: CCL-185), Colo-205 (ATCC: CCL-222), MDA-MB-231 (ATCC: HTB-26), OVCAR-3 (ATCC: HTB-161), OV-90 (ATCC: CRL.11732), OE19 (Sigma: 96071721), RT 112/84 (Sigma: 85061106).
(§3) On the day prior to adding compounds, HCC1954 AsPC-1, BxPC-3, HPAF-II, MiaPaCa2, PANC-1, Capan-1, Capan-2 and NCI-N87 cells were added to opaque-walled 96-well tissue culture-treated microtiter plates using complete growth medium at a density of 2500 cells/100 microlitre (uL) of medium. These adherant cell lines cells were incubated for one night at 37° C./5% CO2 to allow the cells to attach to the microtiter plate surface. On the day that compounds were added, Jurkat cells are added to separate 96-well microtiter plates at 2500 cells/100 uL using the same growth medium as HCC1954. Compound were first serially diluted using dimethyl sulfoxide, and then the prepared dilutions are added to complete growth medium at five-times the final concentration—compounds were then titrated 1:3, eight steps. A control with no compound (growth medium alone) was included on each microtiter plate in sextuplicate. The prepared compounds titrations were added (twenty-five uL/well) in triplicate. The cells and compound titrations were incubated at 37° C./5% CO2 for three nights. After the incubation, cell viability is measured using CellTiter-Glo® reagent by adding thirty uL of prepared CellTiter-Glo® to each assay well. The assay is incubated for at least twenty minutes in the dark prior to measuring emitted luminescence using a microplate luminometer (500 ms integration time). The collected relative luminescence units (RLU) are converted to % cytotoxicity using the Growth medium alone control mentioned above (% Cytotoxicity=1−[Well RLU/average medium alone control RLU]).
(§4) GraphPad Prism was used for generation of EC50 values using three parameter non-linear regression curve fitting.

PANC-1 = format: cell-based; conditions: Homo sapiens, Table 5, read-out: Cytotoxicity (EC50) PANC-1
Source text: as §1, §2, §3, §4

HPAF-II = format: cell-based; conditions: Homo sapiens, Table 5, read-out: Cytotoxicity (EC50) HPAF-II
Source text: as §1, §2, §3, §4

AsPC-1 = format: cell-based; conditions: Homo sapiens, ASPC1, Table 5, read-out: Cytotoxicity (EC50) AsPC-1
Source text: as §1, §2, §3, §4

BxPC-3 = format: cell-based; conditions: Homo sapiens, Table 5, read-out: Cytotoxicity (EC50) BxPC-3
Source text: as §1, §2, §3, §4

MiaPaCa2 = format: cell-based; conditions: Homo sapiens, MIA PaCa-2; Table 5; MinPaCa2; read-out: Cytotoxicity (EC50) MinPaCa2
Source text: as §1, §2, §3, §4

HCC1954 cells = format: cell-based; conditions: Homo sapiens
Source text: as §2, §3, §4

[1] = Table 3, Cytotoxicity of Compounds on Jurkat Cells, read-out: EC50
[2] = HCC1954, Table 4, Cytotoxicity of Compounds on HCC-1954 Cells, read-out: EC50

SMILES | EC50 (Jurkat cells; [1]) | EC50 (PANC-1) | EC50 (HPAF-II) | EC50 (AsPC-1) | EC50 (BxPC-3) | EC50 (MiaPaCa2) | EC50 (HCC1954 cells; [2]) | further results
CN[C@H](C(=O)N[C@H](C(=O)N(C)[C@H](/C=C(\C)C(=O)NS(=O)(=O)c1ccc(NC(=O)C(F)(F)F)cc1)C(C)C)C(C)(C)C)C(C)(C)c1ccccc1 [Compound 23, (S,E)-2,5-dimethyl-N-(4-(2,2,2-trifluoroacetamido)phenylsulfonyl)-4-((S)—N,3,3-trimethyl-2-((S)-3-methyl-2-(methylamino)-3-phenylbutanamido)butanamido)hex-2-enamide] | 0.031 nM |  |  |  |  |  |  | EC50 (NCI-N87): 0.402 nM
CN[C@H](C(=O)N[C@H](C(=O)N(C)[C@H](/C=C(\C)C(=O)NS(=O)(=O)c1ccc(C2(N)CC2)cc1)C(C)C)C(C)(C)C)C(C)(C)c1ccccc1 [Compound 63, (S,E)-N-(4-(1-aminocyclopropyl)phenylsulfonyl)-2,5-dimethyl-4-((S)—N,3,3-trimethyl-2-((S)-3-methyl-2-(methylamino)-3-phenylbutanamido)butanamido) hex-2-enamide] |  | 4 nM | 0.826 nM | 0.97 nM | 0.697 nM | 1.02 nM |  | 
CN[C@H](C(=O)N[C@H](C(=O)N(C)[C@H](/C=C(\C)C(=O)NS(=O)(=O)Cc1ccc(N)cc1)C(C)C)C(C)(C)C)C(C)(C)c1ccccc1 [Compound 80, (S,E)-N-(4-aminobenzylsulfonyl)-2,5-dimethyl-4-((S)—N,3,3-trimethyl-2-((S)-3-methyl-2-(methylamino)-3-phenylbutanamido)butanamido)hex-2-enamide] | 0.389 nM |  |  |  |  |  | 0.207 nM | 
C/C(=C\[C@H](C(C)C)N(C)C(=O)[C@@H](NC(=O)[C@@H]1CCCCN1C(C)C)C(C)(C)C)C(=O)NS(=O)(=O)CCCS [Compound 115, (S)-1-isopropyl-N—((S)-1-(((S,E)-6-(3-mercaptopropylsulfonamido)-2,5-dimethyl-6-oxohex-4-en-3-yl)(methyl)amino)-3,3-dimethyl-1-oxobutan-2-yl)piperidine-2-carboxamide] | 36 nM |  |  |  |  |  | 172 nM | 
CN[C@H](C(=O)N[C@H](C(=O)N(C)[C@H](/C=C(\C)C(=O)NS(=O)(=O)Cc1ccc(CN)cc1)C(C)C)C(C)(C)C)C(C)(C)c1ccccc1 [Compound 77, (S,E)-N-(4-(aminomethyl)benzylsulfonyl)-2,5-dimethyl-4-((S)—N,3,3-trimethyl-2-((S)-3-methyl-2-(methylamino)-3-phenylbutanamido)butanamido)hex-2-enamide] |  | 97.2 nM | 17.2 nM | 15.5 nM | 36.5 nM | 94.3 nM |  | 
CN[C@H](C(=O)N[C@H](C(=O)N(C)[C@H](/C=C(\C)C(=O)NS(=O)(=O)Cc1ccc(NC(=O)C(F)(F)F)cc1)C(C)C)C(C)(C)C)C(C)(C)c1ccccc1 [Compound 79, (S,E)-2,5-dimethyl-N-(4-(2,2,2-trifluoroacetamido)benzylsulfonyl)-4-((S)—N,3,3-trimethyl-2-((S)-3-methyl-2-(methylamino)-3-phenylbutanamido)butanamido)hex-2-enamide] | 0.386 nM |  |  |  |  |  | 0.241 nM | 
CN[C@H](C(=O)N[C@H](C(=O)N(C)[C@H](/C=C(\C)C(=O)NS(=O)(=O)c1ccc(N)cc1)C(C)C)C(C)(C)C)C(C)(C)c1ccccc1 [Compound 24, (S,E)-N-(4-aminophenylsulfonyl)-2,5-dimethyl-4-((S)—N,3,3-trimethyl-2-((S)-3-methyl-2-(methylamino)-3-phenylbutanamido)butanamido)hex-2-enamide] | 0.07 nM | 2.18 nM | 0.396 nM | 0.586 nM | 0.27 nM | 0.566 nM |  | 
CN[C@H](C(=O)N[C@H](C(=O)N(C)[C@H](/C=C(\C)C(=O)NS(C)(=O)=O)C(C)C)C(C)(C)C)C(C)(C)c1ccccc1 [Compound E, (S,E)-2,5-dimethyl-N-(methylsulfonyl)-4-((S)—N,3,3-trimethyl-2-((S)-3-methyl-2-(methylamino)-3-phenylbutanamido)butanamido)hex-2-enanmide] | 1.67 nM |  |  |  |  |  | 0.79 nM | EC50 (Jurkat cells; Table 1, Jurkat cells (HER2−), three nights, read-out: Jurkat cells (HER2−) EC50): 1.67 nM; EC50 (Jurkat cells; Table 2, read-out: Jurkat EC50): 1.67 nM; EC50 (HCC1954 cells; Table 1, HCC1954 cells (HER2+), three nights, read-out: HCC1954 cells (HER2+) EC50): 0.79 nM; EC50 (HCC1954 cells; Table 2, HCC1954, read-out: HCC1954 EC50): 0.79 nM
